# Source: ChEMBL document CHEMBL1201862, “PubChem BioAssay data set” (2004)
# The source made the active and inactive calls.
# Columns and labels:
# [1] = biological target: T1, Leucine aminopeptidase (Plasmodium falciparum 3D7, UniProt Q8IL11); assay: P. falciparum M17LAP inhibitors, primary screen, biochemical, fluorogenic H-Leu-NHMec substrate, 1536-well (AID 1619); assay type: functional
# T1 sequence (Q8IL11 whole entry): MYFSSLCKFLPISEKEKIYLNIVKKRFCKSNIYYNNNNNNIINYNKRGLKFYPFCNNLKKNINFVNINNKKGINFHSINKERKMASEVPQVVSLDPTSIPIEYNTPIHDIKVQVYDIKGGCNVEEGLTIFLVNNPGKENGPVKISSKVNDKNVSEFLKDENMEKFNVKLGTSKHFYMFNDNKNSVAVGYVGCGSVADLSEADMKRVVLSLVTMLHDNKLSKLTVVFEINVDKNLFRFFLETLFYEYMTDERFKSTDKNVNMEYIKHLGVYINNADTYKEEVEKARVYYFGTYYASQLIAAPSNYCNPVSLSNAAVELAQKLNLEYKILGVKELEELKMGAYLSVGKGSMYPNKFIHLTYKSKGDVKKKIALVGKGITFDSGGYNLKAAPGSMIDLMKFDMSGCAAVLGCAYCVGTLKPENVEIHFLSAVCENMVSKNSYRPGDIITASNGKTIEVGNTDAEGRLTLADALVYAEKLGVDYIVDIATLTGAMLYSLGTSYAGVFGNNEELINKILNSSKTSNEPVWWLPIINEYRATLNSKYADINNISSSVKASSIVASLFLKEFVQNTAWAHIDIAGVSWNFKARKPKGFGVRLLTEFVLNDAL
# [2] = cells; assay type: functional, cell-based
# [3] = cells; assay type: functional, cell-based; remark: listed apart in the source
# [4] = biological target: T2, Replicative DNA helicase DnaB (Mycobacterium tuberculosis, UniProt P9WMR3); assay: DnaB intein splicing inhibitors, dose response, biochemical, cell-free fluorescence (AID 449749); assay type: functional
# T2 sequence (P9WMR3 whole entry): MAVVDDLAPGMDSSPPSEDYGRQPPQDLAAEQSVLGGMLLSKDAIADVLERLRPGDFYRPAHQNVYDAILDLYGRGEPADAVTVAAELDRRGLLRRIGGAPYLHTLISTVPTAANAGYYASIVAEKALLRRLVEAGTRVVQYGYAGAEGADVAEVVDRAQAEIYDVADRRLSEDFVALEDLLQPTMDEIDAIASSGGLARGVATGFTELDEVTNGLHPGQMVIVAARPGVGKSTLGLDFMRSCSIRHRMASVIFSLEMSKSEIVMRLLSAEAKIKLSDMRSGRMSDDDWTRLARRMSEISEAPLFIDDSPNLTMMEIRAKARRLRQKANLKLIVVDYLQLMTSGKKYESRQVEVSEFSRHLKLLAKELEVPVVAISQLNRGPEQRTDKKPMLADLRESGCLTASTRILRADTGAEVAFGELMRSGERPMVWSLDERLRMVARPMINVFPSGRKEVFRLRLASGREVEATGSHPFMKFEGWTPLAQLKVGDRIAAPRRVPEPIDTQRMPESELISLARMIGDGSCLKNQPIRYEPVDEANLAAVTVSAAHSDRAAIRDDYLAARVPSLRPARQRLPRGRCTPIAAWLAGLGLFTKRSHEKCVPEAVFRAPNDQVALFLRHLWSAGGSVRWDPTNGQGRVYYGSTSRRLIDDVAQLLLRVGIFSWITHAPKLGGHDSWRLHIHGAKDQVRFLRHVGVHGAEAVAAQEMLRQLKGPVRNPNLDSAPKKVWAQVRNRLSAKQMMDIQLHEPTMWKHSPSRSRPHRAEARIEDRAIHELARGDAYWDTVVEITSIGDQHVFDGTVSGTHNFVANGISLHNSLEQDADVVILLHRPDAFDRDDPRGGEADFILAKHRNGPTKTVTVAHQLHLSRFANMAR
# [5] = microbe, parasite or virus in culture; assay type: functional; settings: Mycobacterium tuberculosis
# [6] = biological target: T3, Corticotropin-releasing factor receptor 2/Corticotropin-releasing factor-binding protein (Homo sapiens, UniProt P24387+Q13324); assay: activators of CRF receptor 2 with binding protein – uHTS hits, confirmation (AID 602473); assay type: functional; settings: read-out: EC50_Mean
# T3 sequence (Q13324 whole entry): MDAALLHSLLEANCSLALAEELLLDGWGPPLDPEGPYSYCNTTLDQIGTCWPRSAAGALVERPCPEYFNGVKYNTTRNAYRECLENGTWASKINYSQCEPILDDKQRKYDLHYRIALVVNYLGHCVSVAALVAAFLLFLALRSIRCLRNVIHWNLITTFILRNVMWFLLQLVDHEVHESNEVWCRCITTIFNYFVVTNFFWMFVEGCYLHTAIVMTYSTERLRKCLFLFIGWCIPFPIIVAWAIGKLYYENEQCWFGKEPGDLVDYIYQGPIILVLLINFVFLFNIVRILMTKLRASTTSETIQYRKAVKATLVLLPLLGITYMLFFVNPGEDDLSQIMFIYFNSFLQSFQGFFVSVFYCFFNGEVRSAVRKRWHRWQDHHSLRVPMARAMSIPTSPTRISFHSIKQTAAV
# T3 sequence (P24387 whole entry): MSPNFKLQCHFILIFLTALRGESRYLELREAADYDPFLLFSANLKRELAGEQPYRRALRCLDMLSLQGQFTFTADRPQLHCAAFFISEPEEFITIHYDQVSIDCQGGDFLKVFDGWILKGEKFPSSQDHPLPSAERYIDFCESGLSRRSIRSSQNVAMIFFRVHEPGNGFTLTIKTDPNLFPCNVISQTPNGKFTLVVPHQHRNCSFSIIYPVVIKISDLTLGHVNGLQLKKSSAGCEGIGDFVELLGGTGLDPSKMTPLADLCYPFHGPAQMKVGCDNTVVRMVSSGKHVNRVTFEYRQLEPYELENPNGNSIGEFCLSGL
# [7] = biological target: T3, Corticotropin-releasing factor receptor 2/Corticotropin-releasing factor-binding protein; assay: Dose Response confirmation of uHTS hits for small molecule antagonists of the CRF-binding protein and CRF-R2 receptor complex.; assay type: functional; settings: read-out: IC50_Mean
# [8] = viability of uninfected HEp-2 cells – cell-based, HTS, cytotoxicity control for RSV inhibitor project, dose response (AID 2410); assay type: functional; settings: human respiratory syncytial virus
# [9] = NIH3T3 cell viability loss – ATP luminescence, mouse fibroblasts, counter-screen, dose response (AID 2010); assay type: functional, cell-based;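 further: cells exposed to compound for about 90 hours before reading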
# [10] = biological target: T4, Ubiquitin-conjugating enzyme E2 N (Homo sapiens, UniProt P61088); assay type: functional;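 further: Dose-response confirmation in a TR-FRET assay detecting UBC13-driven polyubiquitin chain formation, inhibition measured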
# T4 sequence (P61088 whole entry): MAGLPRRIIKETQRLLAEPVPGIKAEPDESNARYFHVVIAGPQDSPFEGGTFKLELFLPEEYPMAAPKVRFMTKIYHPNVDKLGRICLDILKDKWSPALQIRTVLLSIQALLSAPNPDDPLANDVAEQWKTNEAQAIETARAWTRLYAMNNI
# [11] = Luminescence Cell-Based Dose Retest to Confirm Inhibitors of Cancer Stem Cells. [Related pubchem assays (depositor defined):AID2717, AID2721]; assay type: functional; settings: Homo sapiens
# [12] = Trypanosoma cruzi growth suppression in host cells – NIH3T3 host cells, beta-gal luminescence, confirmation (AID 2044); assay type: functional, cell-based;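 further: intracellular parasites grown in NIH/3T3 mouse fibroblasts as host cells; luminescent beta-galactosidase reporter signal from transgenic T. cruzi replicating inside host cells; inhibitors lower the luminescence signal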
# [13] = biological target: T5, Calpain-2 catalytic subunit (Sus scrofa, UniProt P43367); assay: m-calpain protease blockers, concentration series – biochemical, fluorogenic peptide substrate, dose response (AID 1420); assay type: functional
# T5 sequence (P43367 whole entry): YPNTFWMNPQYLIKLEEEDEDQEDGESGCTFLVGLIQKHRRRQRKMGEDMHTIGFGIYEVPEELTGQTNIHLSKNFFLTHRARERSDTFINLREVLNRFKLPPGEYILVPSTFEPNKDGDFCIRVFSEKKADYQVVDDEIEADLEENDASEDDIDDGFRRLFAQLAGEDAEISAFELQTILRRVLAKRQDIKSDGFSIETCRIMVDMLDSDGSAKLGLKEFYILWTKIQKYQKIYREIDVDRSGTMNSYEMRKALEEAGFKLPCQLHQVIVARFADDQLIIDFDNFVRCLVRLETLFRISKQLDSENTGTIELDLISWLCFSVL
# [14] = biological target: Cytochrome P450 3A4 (Homo sapiens, UniProt P08684);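 further: CYP3A4 tested as one member of a cytochrome P450 panel screen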
# Chain of Cytochrome P450 3A4 (P08684 whole entry): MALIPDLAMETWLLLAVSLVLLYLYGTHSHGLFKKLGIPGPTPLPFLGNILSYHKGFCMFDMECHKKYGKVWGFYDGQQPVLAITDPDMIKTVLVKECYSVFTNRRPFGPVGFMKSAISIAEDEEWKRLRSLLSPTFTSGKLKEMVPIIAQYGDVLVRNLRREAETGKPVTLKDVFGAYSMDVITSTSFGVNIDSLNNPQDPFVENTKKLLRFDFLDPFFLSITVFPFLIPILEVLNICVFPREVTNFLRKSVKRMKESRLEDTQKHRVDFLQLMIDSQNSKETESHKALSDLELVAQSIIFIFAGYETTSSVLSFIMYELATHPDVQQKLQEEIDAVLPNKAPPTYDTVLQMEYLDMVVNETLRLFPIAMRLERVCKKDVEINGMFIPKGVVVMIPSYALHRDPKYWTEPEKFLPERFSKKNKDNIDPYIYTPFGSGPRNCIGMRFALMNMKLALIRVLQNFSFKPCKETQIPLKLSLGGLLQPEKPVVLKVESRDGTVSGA
# [15] = non-specific 3'UTR reporter inhibition in Clone20-Shn3RL – cell-based, Renilla luciferase, cherry-picked, counter-screen for Shn3 inhibitor project, dose response (AID 624133); assay type: functional
# [16] = reduction of Shn3 3'UTR-driven luciferase in osteoblasts – cell-based, Clone20 osteoblasts, firefly luciferase, cherry-picked, dose response (AID 624132); assay type: functional;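 further: firefly luciferase luminescence from reporter carrying the Shn3 3'UTR in osteoblasts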
# [17] = cells; assay type: functional
smiles,measurement,setting,value
O=C(CSc1nc[nH]n1)N1N=C2/C(=C/c3ccco3)CCCC2C1c1ccco1 (stereo unspecified),IC50,[1],2.11 µM (active)
Cn1c(SCC(=O)c2ccccc2)nnc1-c1ccco1,EC50,[2],57.5 µM (active)
same,EC50,[3],> 350 µM (not active)
COc1ccccc1NC(=O)C1=C(C)Nc2nnnn2C1c1ccncc1 (stereo unspecified),AC50,[4],21.2 µM (inconclusive)
CC(C)Cn1nc2c3c(ccc2c1O)C(=O)c1ccccc1C3=O,CC50,[5],16.4 µM (active)
CC(=O)c1cccc(NC(=O)CN(C)S(=O)(=O)c2cccc3nsnc23)c1,EC50,[2],> 350 µM (not active)
same,EC50,[3],> 350 µM (not active)
O=C(NCCc1c[nH]c2ccccc12)OCCSS(=O)(=O)O,IC50,[1],21.8 µM (active)
CCCOC(=O)NC1C(NC(=O)OCCC)N(C)C(=O)N1C (stereo unspecified),EC50,[2],> 350 µM (not active)
same,EC50,[3],> 350 µM (not active)
COC(=O)CN1C(=O)COc2ccc(S(=O)(=O)NCc3ccc(Cl)cc3)cc21,EC50,[6],> 53 µM (inactive)
same,IC50,[7],> 47.1 µM (inactive)
CC(=O)N1CCN(S(=O)(=O)c2cccc(C(=O)NCc3ccc(F)cc3)c2)CC1,EC50,[6],> 53 µM (inactive)
same,IC50,[7],> 47.1 µM (inactive)
FC(F)(F)c1ccc2c(c1)NP(=S)(N1CCOCC1)c1nccn1-2 (stereo unspecified),EC50,[2],> 350 µM (not active)
same,EC50,[3],> 350 µM (not active)
CCCCN(CC)S(=O)(=O)c1ccc(C(=O)N(CCCN(C)C)c2nc3cc(C)cc(C)c3s2)cc1,CC50,[8],14.9 µM (active)
same,EC50,[9],9.54 µM (active)
same,IC50,[10],> 20 µM (inactive)
same,AC50,[11],6.96 µM (active)
same,EC50,[12],0.227 µM (active)
same,IC50,[13],8.03 µM (not active)
Cc1ccc(S(=O)(=O)NC(=O)CSc2nc3ccccc3s2)cc1,IC50,[1],7.77 µM (active)
same,AC50,[14],14.1 µM (inconclusive)
Cc1ccc2[nH]c(=O)c(=NNc3ccccc3)cnc2c1,CC50,[5],> 40 µM (active)
CCCn1c(=N)c(C(=O)NCc2ccc3c(c2)OCO3)cc2c(=O)n3cccc(C)c3nc21,CC50,[5],33.9 µM (active)
same,EC50,[9],> 30 µM (not active)
same,EC50,[12],1.67 µM (active)
CCC(=O)n1nc(NCc2ccc(OC)c(OC)c2)nc1NCc1ccc(OC)c(OC)c1,EC50,[2],> 350 µM (not active)
same,EC50,[3],> 350 µM (not active)
O=C(Nc1ccc(C(=O)O)cc1)Nc1cccc([N+](=O)[O-])c1,IC50,[1],16.1 µM (active)
CCCC(=O)NC(=S)Nc1ccc(N2CCN(C(=O)c3cccs3)CC2)cc1,AC50,[15],10.7 µM (active)
same,AC50,[16],10.1 µM (active)
CCN(CC)CCN/C(C)=C1\C(=O)NC(=O)N(c2ccccc2OC)C1=O,EC50,[6],> 53 µM (inactive)
same,IC50,[7],> 47.1 µM (inactive)
Cc1ccc(OCCCCNC2CCCC(C)C2C)c(C)c1 (stereo unspecified),CC50,[5],> 40 µM (active)
same,EC50,[9],> 60 µM (not active)
same,EC50,[12],0.778 µM (active)
N#Cc1ccc(COC(=O)CCc2c[nH]c3ccccc23)cc1,IC50,[17],1.68 µM (active)
COc1ccc(-c2noc(CCC(=O)NCC3CCN(Cc4cccc(C)c4)CC3)n2)cc1,IC50,[10],> 20 µM (inactive)
CC(C)COCC(CN(Cc1ccccc1)c1ccccc1)N1CCCC1 (stereo unspecified),IC50,[10],> 20 µM (inactive)
CN(C(=O)COC(=O)c1ccc(F)c(S(=O)(=O)N2CCOCC2)c1)C1CCS(=O)(=O)C1 (stereo unspecified),EC50,[2],> 350 µM (not active)
same,EC50,[3],> 350 µM (not active)
COc1ccc(/C=N/NS(=O)(=O)c2ccccc2)cc1OC(=O)c1ccc(C)cc1,EC50,[6],> 53 µM (inactive)
same,IC50,[7],> 47.1 µM (inactive)
COc1ccc(CCNC(=O)c2cccn2C)cc1,EC50,[6],> 53 µM (inactive)
same,IC50,[7],> 47.1 µM (inactive)
Cc1ccc(NC(=O)CCn2cc(C(F)(F)F)ccc2=O)cc1,EC50,[6],> 53 µM (inactive)
same,IC50,[7],> 47.1 µM (inactive)
COc1ccc(NC(=O)CN2C(=O)C(C)SC(C)C2=O)cc1 (stereo unspecified),IC50,[1],12.2 µM (active)
C=CCn1c(SCC(=O)c2ccc(NS(=O)(=O)c3ccccc3)cc2)nnc1-c1cccs1,IC50,[1],14.7 µM (active)
OC(CN1C2=NCCN2c2ccccc21)c1ccc2c(c1)OCO2 (stereo unspecified),EC50,[6],> 53 µM (inactive)
same,IC50,[7],> 47.1 µM (inactive)
CSc1ccc(C(=O)C2CCCN(Cc3cc4ccccc4[nH]3)C2)cc1 (stereo unspecified),IC50,[17],13.2 µM (active)
CCOc1ccc(NC(=O)C2CC(C)=C(C)CC2C(=O)O)cc1 (stereo unspecified),IC50,[1],21.3 µM (active)
COc1ccccc1NC(=O)CSc1nc[nH]n1,IC50,[1],36.8 µM (active)
